The record followed here is PubChem BioAssay AID1996.

≈ marks a conversion by molar mass, not a printed value.

For the series the following is noted: buffer; pH 7.4; 200.0 µM.
Molecule `OC(CN1CCN(Cc2ccccc2)CC1)c1ccc(Br)cc1` (stereo not given) yielded a kinetic solubility of 8.1 µg/mL (≈ 21.6 µM).

As for `CC(C)=CC(=O)OCC(=O)Nc1cc(C)cc(C)c1`, the solubility (kinetic) stood at 3.7 µg/mL (≈ 14.2 µM).

`Cc1ncc(CN2CCC(CO)(Cc3ccccc3)CC2)s1` yielded a kinetic solubility of 45.5 µg/mL (≈ 144 µM).

Regarding `Cc1cccc2c(SCC(N)=O)nc(-c3ccccc3)nc12`, the solubility (kinetic) was below 0.2 µg/mL.

On to `O=C(CSc1ccc([N+](=O)[O-])cc1)NCC1CCCCC1`, for which the kinetic solubility was found to be 8.2 µg/mL (≈ 26.6 µM).

Take `CC(C)S(=O)(=O)c1cnc(-c2ccccn2)nc1N`: the solubility (kinetic) is 37.6 µg/mL (≈ 135 µM).

`COc1ccc([N+](=O)[O-])cc1NC(=O)CCN1CCOCC1` returned a kinetic solubility above 46.4 µg/mL.

`Cc1ccc(SCC(=O)NC2CCCCCC2)cc1` displayed a solubility (kinetic) above 41.6 µg/mL.

Molecule `Cc1cc(C(=O)Nc2ccccc2)oc(=O)c1` came in with a kinetic solubility of 25.9 µg/mL (≈ 113 µM).

The molecule `CN1CCc2c(sc3c2C(=O)NC(/C=C\c2ccccc2)N3)C1` (stereo not given) returned a solubility (kinetic) of 44.6 µg/mL (≈ 137 µM).

Regarding `O=C(Nc1cccnc1)OC1CCCCC1`, the kinetic solubility was above 33 µg/mL.

`CC(=O)Nc1ccc2sc(NC(=O)CN3CCOCC3)nc2c1`: the kinetic solubility is above 50.2 µg/mL.

As to `Cc1cc(NC(=O)c2ccc(NC(=O)C3CC3)cc2)no1`, the kinetic solubility was found to be 8.8 µg/mL (≈ 30.8 µM).

In turn, `N/C(=N\OC(=O)c1ccc([N+](=O)[O-])cc1)c1ccc(Br)cc1` registered a kinetic solubility below 0.3 µg/mL.

Molecule `CCN(CC(=O)NCc1ccc(F)cc1)C(=O)/C=C/c1ccco1` showed a kinetic solubility above 49.6 µg/mL.

For `COC(=O)c1c(C)oc(C)c1S(=O)(=O)NCc1ccc(OC)cc1`, the solubility (kinetic) is above 53 µg/mL.

For `Cc1cc(=O)c2ccc(C(F)(F)F)cc2[nH]1`, the solubility (kinetic) was above 34.1 µg/mL.

The molecule `NS(=O)(=O)c1cccc(NS(=O)(=O)c2cccc(C(F)(F)F)c2)c1` had a solubility (kinetic) above 57.1 µg/mL.

In the case of `CC1CCCN(C(=O)COC(=O)Cc2c(F)cccc2Cl)C1` (stereo not given), the kinetic solubility came out at 40.9 µg/mL (≈ 125 µM).

In turn, `COc1ccc(OCCN2CCOCC2)cc1` returned a kinetic solubility of 30.9 µg/mL (≈ 130 µM).

`CCC(C)(C)NC(=O)C1CC(=O)N(CCc2ccc(F)cc2)C1` (stereo not given): the solubility (kinetic) was above 48.1 µg/mL.

In the case of `CCOC(=O)c1csc(NC(=O)CCSc2ccccc2)n1`, the kinetic solubility came out at 1.1 µg/mL (≈ 3.27 µM).

`COc1ccc(C2Nc3ccccc3NC3=C2C(=O)CC(C)(C)C3)cc1O` (stereo not given) had a kinetic solubility of 34.7 µg/mL (≈ 95.2 µM). This solubility kinetic lies about 32-fold higher than the previous one.

In the case of `CCOC(=O)C1=C(N)Oc2cc(O)ccc2C1c1ccc(F)cc1F` (stereo not given), the kinetic solubility was below 0.7 µg/mL.

As for `Cc1cc(SCC(=O)c2cccc([N+](=O)[O-])c2)nc(=O)[nH]1`, the kinetic solubility stood at 24.3 µg/mL (≈ 79.6 µM).

The molecule `CCOC(=O)CNC(=O)c1sc(NC(=O)/C=C/c2ccccc2)nc1C` came in with a kinetic solubility of 0.3 µg/mL (≈ 0.803 µM).

The molecule `Cc1cc(NS(=O)(=O)c2ccc(NC(=O)CNS(=O)(=O)c3ccccc3)cc2)nc(C)n1` displayed a solubility (kinetic) of 67.3 µg/mL (≈ 142 µM). Against the preceding molecule, the solubility kinetic is about 220-fold higher.

In the case of `CC1(C)Cc2c(C#N)c(N3CCNCC3)nc(-c3ccco3)c2CS1`, the solubility (kinetic) was 21.5 µg/mL (≈ 60.7 µM).

In turn, `COc1cc(C(=O)OCC(C)=O)cc(NC(=O)c2ccco2)c1OC` yielded a kinetic solubility of 2.4 µg/mL (≈ 6.91 µM). This solubility kinetic is about 9-fold lower than that of the molecule before.

The molecule `CCc1nc(N2CCN(C(C)=O)CC2)c(C#N)c2c1COC(C)(C)C2` registered a kinetic solubility above 51.4 µg/mL.

Regarding `CC(C)c1ccc[n+](-c2nc([O-])sc2C=O)c1`, the solubility (kinetic) is 27.4 µg/mL (≈ 110 µM).

Molecule `Cc1cc(C)n2c(SCC(=O)Nc3cccc(S(N)(=O)=O)c3)nnc2n1` returned a kinetic solubility above 58.9 µg/mL.

In turn, `CCN(CC)C(=O)Cn1cc(SCC(=O)NC)c2ccccc21` yielded a kinetic solubility of 46.5 µg/mL (≈ 139 µM).

In turn, `CCCNC(=O)c1csc(Nc2cccc3ccccc23)n1` yielded a kinetic solubility of 17.8 µg/mL (≈ 57.2 µM). Compared with the last molecule, the solubility kinetic is about 2.6-fold lower.

For the molecule `Cl.Nc1ccc2nc(CCCO)[nH]c2c1`, the solubility (kinetic) was above 39.6 µg/mL.

Consider `Cc1cc(C)c(C)c(S(=O)(=O)NC(C)C(=O)O)c1C` (stereo not given), for which the kinetic solubility is above 42.8 µg/mL.

Molecule `O=C(NC1CC2CCCC(C1)N2Cc1ccccc1)c1cccc(F)c1` (stereo not given) had a solubility (kinetic) of 45.1 µg/mL (≈ 128 µM).

For `O=C(Cn1c2ccc(F)cc2c2nc3n(c(=O)c21)CCS3)N1CCCC1`, the kinetic solubility is above 55.9 µg/mL.

For the molecule `COc1ccc(CCN(C)C2CC(=O)N(c3ccccc3)C2=O)cc1OC` (stereo not given), the solubility (kinetic) is above 55.3 µg/mL.

Molecule `CC(=O)/C=C\c1ccc(OC(=O)c2cccnc2)cc1` showed a kinetic solubility of 39.6 µg/mL (≈ 148 µM).

For orientation: solubility (kinetic) means solubility judged after dilution from a stock solution rather than from solid.
